How the values were obtained:
[1] = biological target: T1, Proteasome Macropain subunit MB1 (Homo sapiens, UniProt P28074); assay: Inhibition of chymotrypsin-like activity of human 20S proteasome using Suc-LLVY-AMC as substrate by fluorometric method
T1 sequence (P28074 whole entry): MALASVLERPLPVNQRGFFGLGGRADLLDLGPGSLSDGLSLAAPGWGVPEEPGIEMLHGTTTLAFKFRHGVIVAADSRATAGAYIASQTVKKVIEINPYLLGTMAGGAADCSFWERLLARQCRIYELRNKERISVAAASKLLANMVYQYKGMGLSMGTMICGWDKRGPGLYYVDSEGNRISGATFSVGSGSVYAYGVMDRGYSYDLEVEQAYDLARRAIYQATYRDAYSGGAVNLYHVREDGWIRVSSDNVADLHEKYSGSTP

L02 = assay: Cytotoxicity against human HL-7702 cells after 48 hrs by MTT assay; format: cell-based; details: L02, 48 h
NCI-H460 [2] = assay: Resistant factor, ratio of IC50 for human doxorubicin-resistant NCI-H460 cells to IC50 for human NCI-H460 cells; format: functional
HepG2 [3] = assay: Resistant factor, ratio of IC50 for human doxorubicin-resistant HepG2 cells to IC50 for human HepG2 cells; format: functional
NCI-H460 [4] = assay: cells; details: Homo sapiens, NCI-H460, 48 h
NCI-H460 [5] = assay: Cytotoxicity against human NCI-H460 cells after 48 hrs by MTT assay; details: NCI-H460, 48 h
HepG2 [6] = assay: Cytotoxicity against human doxorubicin-resistant HepG2 cells after 48 hrs by MTT assay; format: functional, cell-based; details: HepG2, 48 h
HepG2 [7] = assay: cells; details: Homo sapiens, HepG2, 48 h
Description: Cytotoxicity against human HepG2 cells after 48 hrs by MTT assay

NCI-H460 [8] = assay: Induction of apoptosis in human NCI-H460 cells assessed as viable cells at 4 uM after 24 hrs by Annexin V-PE/7-AAD staining-based flow cytometric analysis (reference value: 83%); format: functional; details: NCI-H460, 24 h, read-out: Activity
NCI-H460 [9] = assay: Induction of apoptosis in doxorubicin-resistant human NCI-H460 cells assessed as damaged cells at 4 uM after 24 hrs by Annexin V-PE/7-AAD staining-based flow cytometric analysis (reference value: 0.493%); format: functional
NCI-H460 [10] = assay: Induction of apoptosis in doxorubicin-resistant human NCI-H460 cells assessed as late apoptotic/necrotic cells at 4 uM after 24 hrs by Annexin V-PE/7-AAD staining-based flow cytometric analysis (reference value: 2.87%); format: functional
NCI-H460 [11] = assay: Induction of apoptosis in doxorubicin-resistant human NCI-H460 cells assessed as viable cells at 4 uM after 24 hrs in presence of p-gp inhibitor LY335979 by Annexin V-PE/7-AAD staining-based flow cytometric analysis (reference value: 95.2%); format: functional; details: NCI-H460, 24 h, read-out: Activity
NCI-H460 [12] = assay: Induction of apoptosis in human NCI-H460 cells assessed as damaged cells at 4 uM after 24 hrs in presence of p-gp inhibitor LY335979 by Annexin V-PE/7-AAD staining-based flow cytometric analysis (reference value: 9.98%); format: functional
NCI-H460 [13] = assay: Induction of apoptosis in human NCI-H460 cells assessed as damaged cells at 4 uM after 24 hrs by Annexin V-PE/7-AAD staining-based flow cytometric analysis (reference value: 9.98%); format: functional
NCI-H460 [14] = assay: Induction of apoptosis in doxorubicin-resistant human NCI-H460 cells assessed as damaged cells at 4 uM after 24 hrs in presence of p-gp inhibitor LY335979 by Annexin V-PE/7-AAD staining-based flow cytometric analysis (reference value: 0.493%); format: functional
[15] = biological target: Proteasome Macropain subunit (Homo sapiens, UniProt P49721); assay: Inhibition of trypsin-like activity of human 20S proteasome using Bz-VGR-AMC as substrate by fluorometric method
Chain of Proteasome Macropain subunit (P49721 whole entry): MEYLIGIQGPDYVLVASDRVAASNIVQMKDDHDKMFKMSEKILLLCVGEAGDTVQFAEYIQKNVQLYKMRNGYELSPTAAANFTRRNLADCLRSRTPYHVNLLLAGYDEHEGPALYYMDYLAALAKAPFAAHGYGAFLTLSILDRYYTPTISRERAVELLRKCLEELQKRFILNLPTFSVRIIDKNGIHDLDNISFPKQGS

NCI-H460 [16] = assay: Induction of apoptosis in human NCI-H460 cells assessed as early apoptotic cells at 4 uM after 24 hrs in presence of p-gp inhibitor LY335979 by Annexin V-PE/7-AAD staining-based flow cytometric analysis (reference value: 1.33%); format: functional
NCI-H460 [17] = assay: Induction of apoptosis in doxorubicin-resistant human NCI-H460 cells assessed as early apoptotic cells at 4 uM after 24 hrs by Annexin V-PE/7-AAD staining-based flow cytometric analysis (reference value: 1.40%); format: functional
NCI-H460 [18] = assay: Induction of apoptosis in human NCI-H460 cells assessed as early apoptotic cells at 4 uM after 24 hrs by Annexin V-PE/7-AAD staining-based flow cytometric analysis (reference value: 1.33%); format: functional
NCI-H460 [19] = assay: Induction of apoptosis in human NCI-H460 cells assessed as viable cells at 4 uM after 24 hrs in presence of p-gp inhibitor LY335979 by Annexin V-PE/7-AAD staining-based flow cytometric analysis (reference value: 83%); format: functional; details: NCI-H460, 24 h, read-out: Activity
NCI-H460 [20] = assay: Induction of apoptosis in doxorubicin-resistant human NCI-H460 cells assessed as viable cells at 4 uM after 24 hrs by Annexin V-PE/7-AAD staining-based flow cytometric analysis (reference value: 95.2%); format: functional; details: NCI-H460, 24 h, read-out: Activity
NCI-H460 [21] = assay: Induction of apoptosis in human NCI-H460 cells assessed as late apoptotic/necrotic cells at 4 uM after 24 hrs by Annexin V-PE/7-AAD staining-based flow cytometric analysis (reference value: 5.73%); format: functional
NCI-H460 [22] = assay: Induction of apoptosis in doxorubicin-resistant human NCI-H460 cells assessed as late apoptotic/necrotic cells at 4 uM after 24 hrs in presence of p-gp inhibitor LY335979 by Annexin V-PE/7-AAD staining-based flow cytometric analysis (reference value: 2.87%); format: functional
NCI-H460 [23] = assay: Induction of apoptosis in doxorubicin-resistant human NCI-H460 cells assessed as early apoptotic cells at 4 uM after 24 hrs in presence of p-gp inhibitor LY335979 by Annexin V-PE/7-AAD staining-based flow cytometric analysis (reference value: 1.40%); format: functional
NCI-H460 [24] = assay: Induction of apoptosis in human NCI-H460 cells assessed as late apoptotic/necrotic cells at 4 uM after 24 hrs in presence of p-gp inhibitor LY335979 by Annexin V-PE/7-AAD staining-based flow cytometric analysis (reference value: 5.73%); format: functional

Compound	IC50 [1]	IC50 (NCI-H460 [4])	IC50 (HepG2 [7])	IC50 (L02)	Ratio IC50 (NCI-H460 [2])	Ratio IC50 (HepG2 [3])	IC50 (NCI-H460 [5])	IC50 (HepG2 [6])	also measured
CC[C@H](C)[C@H](/N=C(/Nc1cccc(C(F)(F)F)c1)SC)C(=O)N[C@H](Cc1ccccc1)C(=O)Nc1ccc(Cl)c(Cl)c1	22.2 µM	–	–	–	–	–	–	–	–
CC[C@H](C)[C@H](NC(=S)Nc1cccc([N+](=O)[O-])c1)C(=O)N[C@H](Cc1ccccc1)C(=O)Nc1cccc(OC)c1	22.3 µM	–	–	–	–	–	–	–	–
CC[C@H](C)[C@H](NC(=S)Nc1ccc(Br)cc1)C(=O)N[C@H](Cc1ccccc1)C(=O)Nc1ccc(C)c(Cl)c1	> 50 µM	–	–	–	–	–	–	–	–
CC[C@H](C)[C@H](/N=C(/Nc1cccc([N+](=O)[O-])c1)SC)C(=O)N[C@H](Cc1ccccc1)C(=O)Nc1ccc(C)c(C)c1	> 50 µM	–	–	–	–	–	–	–	–
CC[C@H](C)[C@H](NC(=S)Nc1cccc(C(F)(F)F)c1)C(=O)N[C@H](Cc1ccccc1)C(=O)Nc1cccc(C(F)(F)F)c1	19.6 µM	–	–	–	–	–	–	–	–
CC[C@H](C)[C@H](NC(=S)Nc1cccc([N+](=O)[O-])c1)C(=O)N[C@H](Cc1ccccc1)C(=O)Nc1ccc(C)c(C)c1	> 50 µM	–	–	–	–	–	–	–	–
CC[C@H](C)[C@H](NC(=S)Nc1cccc([N+](=O)[O-])c1)C(=O)N[C@H](Cc1ccccc1)C(=O)Nc1ccc(OC)cc1	29 µM	–	–	–	–	–	–	–	–
CC[C@H](C)[C@H](NC(=S)Nc1cccc([N+](=O)[O-])c1)C(=O)N[C@H](Cc1ccccc1)C(=O)Nc1ccc(C)c(Cl)c1	> 50 µM	–	–	–	–	–	–	–	–
COc1cccc2c1C(=O)c1c(O)c3c(c(O)c1C2=O)C[C@@](O)(C(=O)CO)C[C@@H]3O[C@H]1C[C@H](N)[C@H](O)[C@H](C)O1 [DOXORUBICIN]	–	–	6.91 µM	12.2 µM	–	–	–	> 50 µM	–

Second part, led by results:

IC50 [1]	IC50 (NCI-H460 [4])	IC50 (HepG2 [7])	Compound	IC50 (L02)	Ratio IC50 (NCI-H460 [2])	Ratio IC50 (HepG2 [3])	IC50 (NCI-H460 [5])	IC50 (HepG2 [6])	also measured
2.71 µM	35.2 µM	17.4 µM	CC[C@H](C)[C@H](NC(=S)Nc1cccc([N+](=O)[O-])c1)C(=O)N[C@H](Cc1ccccc1)C(=O)Nc1ccc(Br)cc1	> 50 µM	2.18	2.76	16.2 µM	48.2 µM	–
5.84 µM	31.7 µM	20.7 µM	CC[C@H](C)[C@H](NC(=S)Nc1cccc([N+](=O)[O-])c1)C(=O)N[C@H](Cc1ccccc1)C(=O)Nc1cccc(Cl)c1	> 50 µM	2.32	–	13.6 µM	> 50 µM	–
1.36 µM	32.3 µM	13.3 µM	CC[C@H](C)[C@H](NC(=S)Nc1cccc([N+](=O)[O-])c1)C(=O)N[C@H](Cc1ccccc1)C(=O)Nc1ccc(Cl)c(Cl)c1	> 50 µM	2.18	2.82	14.8 µM	37.4 µM	–
0.0086 µM	6.74 µM	4.8 µM	CC[C@H](C)[C@H](NC(=S)Nc1cccc([N+](=O)[O-])c1)C(=O)N[C@H](Cc1ccccc1)C(=O)Nc1cccc(C(F)(F)F)c1	> 50 µM	3.96	2.12	1.7 µM	10.2 µM	viability at 4 µM (NCI-H460 [8]): 74.2%; Activity (NCI-H460 [9]): 1.9%; Activity (NCI-H460 [10]): 5.96%; viability at 4 µM (NCI-H460 [11]): 32.5%; Activity (NCI-H460 [12]): 13.9%; Activity (NCI-H460 [13]): 4.72%; Activity (NCI-H460 [14]): 5.72%; IC50 [15]: Not Active; Activity (NCI-H460 [16]): 4.86%; Activity (NCI-H460 [17]): 11.4%; Activity (NCI-H460 [18]): 13.3%; viability at 4 µM (NCI-H460 [19]): 57%; viability at 4 µM (NCI-H460 [20]): 80.8%; Activity (NCI-H460 [21]): 7.76%; Activity (NCI-H460 [22]): 29.9%; Activity (NCI-H460 [23]): 31.9%; Activity (NCI-H460 [24]): 24.2%
8.83 µM	> 50 µM	19.3 µM	CC[C@H](C)[C@H](/N=C(/Nc1cccc(C(F)(F)F)c1)SC)C(=O)N[C@H](Cc1ccccc1)C(=O)Nc1cccc(C(F)(F)F)c1	> 50 µM	–	2.55	20.3 µM	49.2 µM	IC50 [15]: Not Active
0.022 µM	11.2 µM	18.6 µM	CC[C@H](C)[C@H](NC(=S)Nc1ccc(C(F)(F)F)cc1)C(=O)N[C@H](Cc1ccccc1)C(=O)Nc1cccc(Br)c1	> 50 µM	1.58	1.47	7.13 µM	27.4 µM	–
3.57 µM	28.6 µM	18 µM	CC[C@H](C)[C@H](NC(=S)Nc1cccc([N+](=O)[O-])c1)C(=O)N[C@H](Cc1ccccc1)C(=O)Nc1cccc(F)c1	> 50 µM	2.33	2.04	12.3 µM	36.8 µM	–
0.017 µM	15.5 µM	12.1 µM	CC[C@H](C)[C@H](NC(=S)Nc1cccc(C(F)(F)F)c1)C(=O)N[C@H](Cc1ccccc1)C(=O)Nc1ccc(Cl)c(Cl)c1	> 50 µM	2.52	2.44	6.14 µM	29.6 µM	IC50 [15]: Not Active
1.97 µM	42.4 µM	17.5 µM	CC[C@H](C)[C@H](NC(=S)Nc1cccc([N+](=O)[O-])c1)C(=O)N[C@H](Cc1ccccc1)C(=O)Nc1ccc(F)cc1	> 50 µM	2.09	2.78	20.2 µM	48.5 µM	–

— ChEMBL document CHEMBL4002562, “Terminal functionalized thiourea-containing dipeptides as multidrug-resistance reversers that target 20S proteasome and cell proliferation” (Eur J Med Chem, 2017)
